We go through 9 compounds from patent US11414401B2, “Substituted 2-anilinopyrimidine derivatives as EGFR modulators” (Beta Pharma, Inc., priority 2014, dated 2022).

For one data set, the system named is A431 (wild type) cells. Description: Cell proliferation assay (Alamar Blue, 72 h), A431. Type of data set: cell-based. Conditions: Homo sapiens, read-out: A431 IC50. The procedure: (§1) Cell Culture. […] The cell monolayer was dispersed by 5 minute exposure to 0.25% Trypsin/EDTA solution (Life Technologies) and the solution was neutralized with a fresh growth medium. […] The cells maintained normal morphology and growth characteristics during the period of the study. Cell Proliferation Assay. Dispersed cells were pooled by centrifugation (200×g, 8 min.) and resuspended in a fresh medium to a concentration of 1.00 E+04 cells/ml. 200 μL of the cell suspension was added to each well (2,000 cells/well) of a black-walled 96 well plate and the cells were allowed to attach overnight under normal culture conditions. […] The final DMSO concentration in the well was 0.5% v/v. Vehicle, non-treated, and cell-free wells were also included in the assay. The cells were cultured under normal conditions for 72 hours with daily visual inspection. Cell proliferation was measured using the dye Alamar Blue (resazurin). Resazurin is reduced by cellular enzymes to resorufin, which is fluorescent (544 nm excitation, 612 nm emission). Fluorescence intensity was proportional to cell number. A resazurin stock solution was prepared in a phosphate-buffered saline (PBS) to a stock concentration of 440 μM. The resazurin stock solution (40 μL each) was added to each well at hour 67 of the 72 hour incubation period. The plate was returned to normal culture conditions and fluorescence measurements were collected using a Cytation 3 multimode plate reader (Biotek) at 72 hours. Data Analysis. Fluorescence measurements were normalized against cell-free (background) readings and the total growth over 72 hour time period was determined versus the average of the vehicle control wells. Average and standard deviation values were determined for each condition (n=3).

Data set [1] deals with H1975 (double mutant) cells. The experiment in a line: Cell proliferation assay (Alamar Blue, 72 h), H1975. Type of data set: cell-based. Conditions: Homo sapiens, read-out: H1975 IC50. On the procedure:
as §1

The subject of data set [2] is subcutaneously-implanted H1975 human non-small cell lung carcinoma xenographs (L858R/T790M double mutation). Description: H1975 mouse xenograft model, tumor growth inhibition. The settings on record: for % tumor growth inhibition (% TGI): 100 mg/kg oral; for tumor growth delay: P<0.05.
Data set [3] shares this test system. The settings on record: po, 25 mg/kg, 336 h.
Data set [4] has as its system subcutaneously-implanted HCC827 human non-small cell lung carcinoma xenographs (delE746-A750 activating mutation). Description: HCC827 mouse xenograft model, tumor growth inhibition. Type of data set: in vivo, female nude mice. Conditions: 6.25 mg/kg orally once a day for 14 days (days 13-26). From the text: Antitumor Activity of Example 1 in the HCC827 Mouse Xenograft Model.

Setting [5] is: A-431, A431 (wild type) cells, 72 h proliferation.
Where [6] appears, read: NCI-H1975, H1975 (double mutant) cells, 72 h proliferation.
The mark [7] stands for this setting: 100 mg/kg orally once a day for 14 days (days 7-20).
Where [8] appears, read: 6.25 mg/kg orally once a day for 14 days (days 6-19).
Setting [9] is: 12.5 mg/kg orally once a day for 14 days (days 6-19).
The mark [10] stands for this setting: 25 mg/kg orally once a day for 14 days (days 6-19).
Setting [11] is: all doses (6.25, 12.5 and 25 mg/kg) orally once a day for 14 days.

Where two headings read alike, the source gives them in different places.

As a reminder, the IC50 is the concentration that gives 50% inhibition. In the case of `C=CC(=O)Nc1cc(Nc2nccc(-c3cnn4ccccc34)n2)c(OC)cc1OCCN(C)C` [Example 9, N-(2-(2-(Dimethylamino)ethoxy)-4-methoxy-5-((4-(pyrazolo[1,5-a]pyridin-3-yl)pyrimidin-2-yl)amino)phenyl)acrylamide], the IC50 with A431 (wild type) cells (setting [5]) is over 1000 nM; in data set [1] (setting [6]), under 100 nM.

As to `C=CC(=O)Nc1cc(Nc2nccc(-c3cn(CCF)c4ccccc34)n2)c(OC)cc1OCCN(C)C` [Example 11, N-(2-(2-(Dimethylamino)ethoxy)-5-((4-(1-(2-fluoroethyl)-1H-indolyl-3-yl)pyrimidin-2-yl)amino)-4-methoxyphenyl)acrylamide], the IC50 was 100 to 1000 nM in the data set on A431 (wild type) cells (A-431, 72 h) and under 100 nM in data set [1] (NCI-H1975, 72 h).

With `C=CC(=O)Nc1cc(Nc2nccc(-c3cn(C)c4ccccc34)n2)c(OC)cc1CCCN(C)C` [Example 4, N-(2-(3-(Dimethylamino)propyl)-4-methoxy-5-((4-(1-methyl-1H-indol-3-yl)pyrimidin-2-yl)amino)phenyl)acrylamide], the values for the IC50 (in the data set on A431 (wild type) cells (setting [5]); in data set [1] (setting [6])) were over 1000 nM and under 100 nM, respectively.

For the compound `C=CC(=O)Nc1cc(Nc2nccc(-c3cn(C)c4ccccc34)n2)c(OC)cc1SCCN(C)C` [Example 2, N-(2-((2-(Dimethylamino)ethyl)thio)-4-methoxy-5-((4-(1-methyl-1H-indol-3-yl)pyrimidin-2-yl)amino)phenyl)acrylamide], the IC50 in the data set on A431 (wild type) cells (setting [5]) is over 1000 nM. Besides, the IC50 in data set [1] (setting [6]) was under 100 nM. Besides, the “% tumor growth inhibition (% TGI)” value in data set [2] (from median tumor burdens on day 10) stood at 110.5%. In addition, in data set [2] (from median tumor burdens on day 14), the “% tumor growth inhibition (% TGI)” value was found to be 116.6%. Also, the “% tumor growth inhibition (% TGI)” value in data set [2] (from median tumor burdens on day 17) was determined as 116.6%. In data set [2] (setting [7]), the “incidence of complete tumor regression” value is on record as 100%, the “mice remaining tumor free (TFS) at the completion of the study” value is recorded as 12.5%, the “time to evaluation size (750 mm^3)” value was determined as 39.6 days and the tolerability entry is on record as “well tolerated”. The “tumor growth delay (T-C)” value in data set [2] (setting [7]) came to 22.2 days.

As to `C=CC(=O)Nc1cc(Nc2nccc(-c3c(C)n(C)c4ccccc34)n2)c(OC)cc1OCCN(C)C` [Example 8, N-(5-((4-(1,2-Dimethyl-1H-indol-3-yl)pyrimidin-2-yl)amino)-2-(2-(dimethylamino)ethoxy)-4-methoxyphenyl)acrylamide], the IC50 with A431 (wild type) cells (setting [5]) is 100 to 1000 nM; in data set [1] (setting [6]), under 100 nM.

With `C=CC(=O)Nc1cc(Nc2nccc(-c3nn(C)c4ccccc34)n2)c(OC)cc1OCCN(C)C` [Example 10, N-(2-(2-(Dimethylamino)ethoxy)-4-methoxy-5-((4-(1-methyl-1H-indazol-3-yl)pyrimidin-2-yl)amino)phenyl)acrylamide], the half-inhibitory concentration (IC50) in the data set on A431 (wild type) cells (setting [5]) was 100 to 1000 nM; in data set [1] (setting [6]), under 100 nM.

`C=CC(=O)Nc1cc(Nc2nccc(-c3cn(C)c4ccccc34)n2)c(OC)cc1OCCN(C)C` [Example 1, N-(2-(2-(Dimethylamino)ethoxy)-4-methoxy-5-((4-(1-methyl-1H-indol-3-yl)pyrimidin-2-yl)amino)phenyl)acrylamide] gave a tumor free survivors in data set [3] of 10%. Also, the IC50 in the data set on A431 (wild type) cells (setting [5]) was over 1000 nM; in data set [1] (setting [6]), under 100 nM. Besides, the “incidence of complete tumor regression at the completion of dosing” value in data set [4] was 100%. The “median time to evaluation size” value in data set [4] stood at 61.5 days; in data set [2] (setting [8]), 28.9 days; in data set [2] (setting [9]) it was 31.6 days; in data set [2] (setting [10]) it was 34.3 days. Besides, the tolerability result in data set [4] and in data set [2] (setting [11]) was “well tolerated” each time. The treatment-related mortality result in data set [4] and in data set [2] (setting [11]) was “no treatment-related mortality” in each case. Besides, the tumor growth delay in data set [4] (P<0.05) is 33.2 days; in data set [2] (setting [8]), 14 days; in data set [2] (setting [9]), 16.7 days; in data set [2] (setting [10]) it was 19.3 days. Besides, the “incidence of complete regressions” value in data set [2] (setting [10]) came to 100%.

As for `C=CC(=O)Nc1cc(Nc2nccc(-c3cn(C)c4ccccc34)n2)c(OC)cc1OC` [Example 3, N-(2,4-Dimethoxy-5-((4-(1-methyl-1H-indol-yl)pyrimidin-2-yl)amino)-phenyl)acrylamide], the IC50 was over 1000 nM in the data set with A431 (wild type) cells (setting [5]) and 100 to 1000 nM in data set [1] (setting [6]).

As to `C=CC(=O)Nc1cc(Nc2nccc(-c3c4ccccc4nn3C)n2)c(OC)cc1OCCN(C)C` [Example 5, N-(2-(2-(Dimethylamino)ethoxy)-4-methoxy-5-((4-(2-methyl-2H-indazol-3-yl)pyrimidin-2-yl)amino)phenyl)acrylamide], the IC50 (with A431 (wild type) cells (setting [5]); in data set [1] (setting [6])) was 100 to 1000 nM in each case.
